In US9649315B2, “Composition useful for treating disorders related to TRPA1” (HYDRA BIOSCIENCES, INC., priority 2008, dated 2017):

How the values were obtained:
[1] = tested on: formalin-induced pain behavior; assay: Formalin-induced pain behavior in rats; assay type: in vivo, rat; details: 50 mg/kg oral, one hour prior to intraplantar formalin (3%), observed for 2 minutes following injection
Protocol: Compound 1 was tested in the formalin-induced pain test reported by Dubuisson et al., Pain 1977 December; 4(2):161-74. The compound was dosed orally in rats (8 animals) at 50 mg/kg, one hour prior to intraplantar formalin (3%) injection. The control group (8 animals) received vehicle (30% Captisol® in water, pH 10). […] The duration of pain behavior in the treated animals was reduced by about 30%, compared to the animals who received vehicle.

[2] = tested on: AITC-induced pain behavior; assay: AITC-induced pain behavior (automated flinch detecting system) in the rat; assay type: in vivo; details: 50 mg/kg oral gavage
Protocol: Compound 1 was tested in the automated flinch detecting system described by Yaksh et al., J. Appl. Physiol 90: 2386-2402 (2001). A small metal band was loosely placed around each rat's left hind paw. The fasted rats were dosed (50 mg/kg) via oral gavage with Compound 1 (8 animals) or vehicle (8 animals, 30% Captisol® in water, pH 10). The rats were acclimatized in the test chamber prior to allyl isothiocyanate (AITC) administration. AITC was then injected into the paw of each animal, and the animal was promptly returned to the chamber. The number of paw flinches was monitored for 60 minutes. After 10 minutes, animals receiving vehicle flinched a total of about 350 times, while the treated animals flinched about 200 times. After 60 minutes the animals that had received vehicle prior to AITC administration flinched about 1950 times, while the compound pre-treated animals flinched about 1000 times.

[3] = target: hTRPA1 channel (Homo sapiens, UniProt O75762); assay: Inhibition of TRPA1 channel activity; assay type: cell-based; details: procedure similar to WO 2007/073505; read-out: IC50 against hTRPA1 channel activity
Chain of hTRPA1 channel (O75762 whole entry): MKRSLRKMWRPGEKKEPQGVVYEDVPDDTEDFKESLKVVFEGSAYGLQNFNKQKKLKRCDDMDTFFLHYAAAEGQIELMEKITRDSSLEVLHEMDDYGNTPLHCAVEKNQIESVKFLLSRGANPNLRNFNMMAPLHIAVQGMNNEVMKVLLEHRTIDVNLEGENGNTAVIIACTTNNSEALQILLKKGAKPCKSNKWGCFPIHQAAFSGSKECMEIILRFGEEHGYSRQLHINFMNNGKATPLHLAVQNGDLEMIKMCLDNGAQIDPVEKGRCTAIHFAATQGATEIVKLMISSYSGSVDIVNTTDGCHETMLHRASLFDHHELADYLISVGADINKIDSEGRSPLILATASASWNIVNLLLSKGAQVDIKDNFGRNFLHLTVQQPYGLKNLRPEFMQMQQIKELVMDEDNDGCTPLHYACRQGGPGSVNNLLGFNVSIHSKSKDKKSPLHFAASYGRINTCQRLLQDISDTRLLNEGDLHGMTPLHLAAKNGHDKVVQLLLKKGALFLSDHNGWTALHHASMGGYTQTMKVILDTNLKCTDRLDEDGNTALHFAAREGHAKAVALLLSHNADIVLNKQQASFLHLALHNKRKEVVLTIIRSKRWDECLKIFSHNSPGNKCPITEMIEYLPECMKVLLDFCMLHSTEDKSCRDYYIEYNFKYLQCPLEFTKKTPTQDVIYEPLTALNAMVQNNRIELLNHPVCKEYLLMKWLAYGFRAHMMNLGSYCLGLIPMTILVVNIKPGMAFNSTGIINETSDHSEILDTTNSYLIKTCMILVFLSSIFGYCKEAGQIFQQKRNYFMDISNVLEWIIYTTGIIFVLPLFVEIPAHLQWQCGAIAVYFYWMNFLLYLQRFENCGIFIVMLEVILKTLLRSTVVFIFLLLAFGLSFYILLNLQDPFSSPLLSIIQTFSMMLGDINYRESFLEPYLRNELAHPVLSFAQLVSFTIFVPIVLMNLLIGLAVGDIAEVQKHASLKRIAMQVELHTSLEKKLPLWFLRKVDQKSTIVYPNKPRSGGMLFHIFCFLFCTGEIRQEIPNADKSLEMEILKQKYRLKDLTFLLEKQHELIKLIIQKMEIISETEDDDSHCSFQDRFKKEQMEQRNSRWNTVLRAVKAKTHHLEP
Protocol: Compound 1 was tested using a procedure similar to the procedure outlined in WO 2007/073505.

## C[C@H]1CCCN1c1ccc(-c2csc(NC(=O)Cn3cnc4c3c(=O)n(C)c(=O)n4C)n2)cc1F [Compound 1]
[1]
  reduction of duration of pain behavior compared to vehicle: about 30%
[2]; fasted rats, AITC injected into paw, after 10 minutes (vehicle about 350)
  total number of paw flinches after 10 minutes: about 200 times
[2]; fasted rats, AITC injected into paw, after 60 minutes (vehicle about 1950)
  total number of paw flinches after 60 minutes: about 1000 times
[2]; rats
  effect on AITC-induced pain behavior: able to reduce the AITC-induced pain behavior
[3]
  IC50: ~4 nM
